In patent publication US20230069963A1, “PYRAZOLO[1,5-A]PYRIMIDINE MACROCYCLIC COMPOUND” (priority 2018, published 2023):
Structures can show the parent of a compound that is named as a salt. Where two headings read alike, the source gives them in different places.

What was measured:
[1] = from CN(CCCCS(=O)(=O)NC(C)(C(=O)O)c1ccccc1)c1cc(Cl)nc2cc([C@@H]3CCCCN3)nn12; amide bond; HATU; DMF; 10.2 mM; 70.0 °C; 2.5 h
[2] = system: F protein D486N mutant strain of RSV A2 strain; assay type: cell-based, respiratory syncytial virus (RSV); details: Hep2 cells, incubated for 4 days, CPE detected with XTT assay (absorbance 450 nm); read-out: EC50 (nmol/L) against F protein D486N mutant strain of RSV A2 strain
RSV ATCC VR-1540 (A2) = assay: microbe, parasite or virus in culture; assay type: cell-based; details: Hep2 cells, incubated for 4 days, CPE detected with XTT assay (absorbance 450 nm), read-out: EC50 (nmol/L) against RSV A2 strain
[3] = human respiratory syncytial virus, HEp-2, 96 h

CN1CCCCS(=O)(=O)NC(C)(c2ccccc2)C(=O)N2CCCC[C@H]2c2cc3nc(Cl)cc1n3n2 (stereo partly drawn)
ring closure, yield of all isomers [1]: 80.4%

CC1CCNC(=O)COc2ccc(Cl)cc2C(=O)N2CCCCC2c2cc3nc(C4CC4)cc1n3n2 (single isomer, unassigned) [Example 124a]
EC50 [2]: 7.23 nmol/L

Cc1ccc2c(c1)C(=O)N1CCCCC1c1cc3nc(C4CC4)cc(n3n1)C(C)CCNC(=O)CO2 (single isomer, unassigned) [Example 126a]
EC50 [2]: 2.05 nmol/L

CN1CCNC(C(F)(F)F)COc2ccc(Cl)cc2C(=O)N2CCCCC2c2cc3nc(N4CC(N)C4)cc1n3n2 (single isomer, unassigned) [Example 339]
EC50 [2]: 4.11 nmol/L

CN1CCNC(=O)COc2ccc(F)cc2C(=O)N2CCCCC2c2cc3nc(N4CCC(N)C4)cc1n3n2 [Example 1, (18aS)-13-[(3S)-3-aminopyrrolidin-1-yl]-2-fluoro-11-methyl-8,9,10,11,19,20,21,22-octahydro-18aH,24H-18,15-(metheno)pyrido[2,1-l]pyrimido[6,1-h][1,4,7,9,10,13]benzoxapentaazacyclohexadecine-7,24(6H)-dione]
EC50 [2]: 3.17 nmol/L | EC50 (RSV ATCC VR-1540 (A2); [3]): 2.07 nmol/L

CN1CCNC(=O)COc2ccc(F)cc2C(=O)N2CCCC[C@H]2c2cc3nc(N4CCC4)cc1n3n2 [Example 2, (18aS)-13-(azetidin-1-yl)-2-fluoro-1-methyl-8,9,10,11,19,20,21,22-octahydro-18aH,24H-18,15-(metheno)pyrido[2,1-l]pyrimido[6,1-h][1,4,7,9,10,13]benzoxapentaazacyclohexadecine-7,24(6H)-dione]
EC50 [2]: 3.06 nmol/L | EC50 (RSV ATCC VR-1540 (A2); [3]): 0.8 nmol/L

CN1CC(=O)NCCOc2ccc(F)cc2C(=O)N2CCCC[C@H]2c2cc3nc(N4CC(N)C4)cc1n3n2 [Example 37, (18aS)-13-(3-aminoazetidin-1-yl)-2-fluoro-1-methyl-7,8,10,11,19,20,21,22-octahydro-8aH,24H-18,15-(metheno)pyrido[2,1-l]pyrimido[6,1-h][1,4,7,9,10,13]benzoxapentaazacyclohexadecine-9,24(6H)-dione]
EC50 [2]: 10.1 nmol/L

CN1CCNC(=O)COc2ccc(Cl)cc2C(=O)N2CCCC[C@H]2c2cc3nc(N4CC(O)C4)cc1n3n2 [Example 39]
EC50 [2]: 0.867 nmol/L

[2H]C([2H])([2H])c1ccc2c(c1)C(=O)N1CCCC[C@H]1c1cc3nc(N4CC(O)C4)cc(n3n1)N(C)CCNC(=O)CO2 [Example 53, (18aS)-13-(3-hydroxyazetidin-1-yl)-1-methyl-2-trideuteriomethyl-8,9,10,11,19,20,21,22-octahydro-18aH,24H-18,15-(metheno)pyrido[2,1-l]pyrimido[6,1-h][1,4,7,9,10,13]benzoxapentaazacyclohexadecine-7,24(6H)-dione]
EC50 [2]: 1.05 nmol/L

CN1CCCNC(=O)COc2ccc(F)cc2C(=O)N2CCCC[C@H]2c2cc3nc(N4CC(N)C4)cc1n3n2 [Example 57, (19aS)-14-(3-aminoazetidin-1-yl)-2-fluoro-12-methyl-9,10,11,12,20,21,22,23-octahydro-6H, 19aH,25H-19,16-(metheno)pyrido[2,1-m]pyrimido[6,1-i][1,4,8,10,11,14]benzoxapentaazacycloheptadecine-7,25(8H)-dione]
EC50 [2]: 12.6 nmol/L | EC50 (RSV ATCC VR-1540 (A2); [3]): 2.11 nmol/L

CN1CCNC(=O)COc2ccc(F)cc2C(=O)N2CCCC[C@H]2c2cc3nc(C4CC4)cc1n3n2 [Example 90, (18aS)-13-cyclopropyl-2-fluoro-11-methyl-8,9,10,11,19,20,21,22-octahydro-18aH,24H-18,15-(metheno)pyrido[2,1-l]pyrimido[6,1-h][1,4,7,9,10,13]benzoxapentaazacyclohexadecine-7,24(6H)-dione]
EC50 [2]: 2.8 nmol/L

[2H]C([2H])([2H])c1ccc2c(c1)C(=O)N1CCCC[C@H]1c1cc3nc(C4CC4)cc(n3n1)N(C)CCNC(=O)CO2 [Example 100, (18aS)-13-cyclopropyl-11-methyl-2-trideuteriomethyl-8,9,10,11,19,20,21,22-octahydro-18aH,24H-18,15-(metheno)pyrido[2,1-l]pyrimido[6,1-h][1,4,7,9,10,13]benzoxapentaazacyclohexadecine-7,24(6H)-dione]
EC50 [2]: 0.678 nmol/L | EC50 (RSV ATCC VR-1540 (A2); [3]): 0.328 nmol/L

CN1CCNC(=O)COc2ccc(Cl)cc2C(=O)N2CCCCC2c2cc3nc(C4CC(O)C4)cc1n3n2 [Example 112, (18aS)-2-chloro-13-(trans-3-hydroxycyclobutyl)-11-methyl-8,9,10,11,19,20,21,22-octahydro-18aH,24H-18,15-(metheno)pyrido[2,1-l]pyrimido[6,1-h][1,4,7,9,10,13]benzoxapentaazacyclohexadecine-7,24(6H)-dione]
EC50 [2]: 0.704 nmol/L

[2H]C([2H])([2H])N1CCNC(=O)COc2ccc(Cl)cc2C(=O)N2CCCCC2c2cc3nc(C4CC(O)C4)cc1n3n2 [Example 115, (18aS)-2-chloro-13-(trans-3-hydroxycyclobutyl)-11-trideuteriomethyl-8,9,10,11,19,20,21,22-octahydro-18aH,24H-18,15-(metheno)pyrido[2,1-l]pyrimido[6,1-h][1,4,7,9,10,13]benzoxapentaazacyclohexadecine-7,24(6H)-dione]
EC50 [2]: 0.777 nmol/L | EC50 (RSV ATCC VR-1540 (A2); [3]): 0.344 nmol/L

Cc1ccc2c(c1)C(=O)N1CCCCC1c1cc3nc(C4CC(O)C4)cc(n3n1)N(C)CCNC(=O)CO2 [Example 117, (18aS)-13-(trans-3-hydroxycyclobutyl)-2,11-dimethyl-8,9,10,11,19,20,21,22-octahydro-18aH,24H-18,15-(metheno)pyrido[2,1-l]pyrimido[6,1-h][1,4,7,9,10,13]benzoxapentaazacyclohexadecine-7,24(6H)-dione]
EC50 [2]: 0.742 nmol/L | EC50 (RSV ATCC VR-1540 (A2); [3]): 0.773 nmol/L

[2H]C([2H])([2H])c1ccc2c(c1)C(=O)N1CCCCC1c1cc3nc(C4CC(O)C4)cc(n3n1)N(C([2H])([2H])[2H])CCNC(=O)CO2 [Example 120, (18aS)-13-(trans-3-hydroxycyclobutyl)-2,1I-bis[trideuteriomethyl]-8,9,10,11,19,20,21,22-octahydro-18aH,24H-18,15-(metheno)pyrido[2,1-l]pyrimido[6,1-h][1,4,7,9,10,13]benzoxapentaazacyclohexadecine-7,24(6H)-dione]
EC50 [2]: 0.639 nmol/L | EC50 (RSV ATCC VR-1540 (A2); [3]): 0.45 nmol/L

Cc1ccc2c(c1)C(=O)N1CCCC[C@H]1c1cc3nc(N4CC(O)C4)cc(n3n1)N(C)CCNCCO2 [Example 171, (18aS)-13-(3-hydroxyazetidin-1-yl)-2,11-dimethyl-6,7,8,9,10,11,19,20,21,22-decahydro-18aH,24H-18,15-(metheno)pyrido[2,1-l]pyrimido[6,1-h][1,4,7,9,10,13]benzoxapentaazacyclohexadecin-24-one]
EC50 [2]: 4.19 nmol/L

Cc1ccc2c(c1)C(=O)N1CCCCC1c1cc3nc(N4CCC(N)C4)cc(n3n1)N(C)CCCCO2 [Example 244, (23aS)-18-[(3S)-3-aminopyrrolidin-1-yl]-8,16-dimethyl-1,3,4,13,14,15,16,23a-octahydro-2H, 6H,12H-23,20-(metheno)pyrido[2,1-k]pyrimido[6,1-g][1,6,8,9,12]benzoxatetraazacyclopentadecin-6-one hydrochloride]
EC50 [2]: 7.34 nmol/L | EC50 (RSV ATCC VR-1540 (A2); [3]): 4.01 nmol/L

CN1CCOCCOc2ccc(Cl)cc2C(=O)N2CCCC[C@H]2c2cc3nc(N4CC(N)C4)cc1n3n2 [Example 298, (18aS)-13-(3-aminoazetidin-1-yl)-2-chloro-11-methyl-6,7,10,11,19,20,21,22-octahydro-9H,18aH,24H-18,15-(metheno)pyrido[2,1-l]pyrimido[6,1-h][1,4,7,9,10,13]benzodioxatetraazacyclohexadecin-24-one]
EC50 [2]: 3.13 nmol/L

CN1CCCS(=O)(=O)Nc2ccc(Cl)cc2C(=O)N2CCCCC2c2cc3nc(N4CCC(N)C4)cc1n3n2 [Example 312, (23aS)-18-[(3S)-3-aminopyrrolidin-1-yl]-8-chloro-16-methyl-1,3,4,13,14,15,16,23a-octahydro-2H,6H-23,20-(metheno)-12h-pyrido[2,1-k]pyrimido[6,1-g][2,1,6,8,9,12]benzothiapentaazacyclopentadecine-6,12,12(11H)-trione]
EC50 [2]: 31.8 nmol/L | EC50 (RSV ATCC VR-1540 (A2); [3]): 4.05 nmol/L

CN1CCn2ccnc2COc2ccc(Cl)cc2C(=O)N2CCCC[C@H]2c2cc3nc(N4CC(N)C4)cc1n3n2 [Example 335, (20aS)-15-(3-amninoazetidin-1-yl)-2-chloro-13-methyl-12,13,21,22,23,24-hexahydro-6H,11H, 20aH,26H-20,17-(metheno)imidazo[2,1-c]pyrido[2,1-l]pyrimido[6,1-h][1,4,7,9,10,13]benzoxapentaazacyclohexadecin-26-one]
EC50 [2]: 10.6 nmol/L

Cc1ccc2c(c1)C(=O)N1CCCCC1c1cc3nc(N4CC(O)C4)cc(n3n1)N(C)CC(C(F)(F)F)NCCO2 [Example 348, (18aS)-13-(3-hydroxyazetidin-1-yl)-2,11-dimethyl-9-(trifluoromethyl)-6,7,8,9,10,11,19,20,21,22-decahydro-18aH,24H-18,15-(metheno)pyrido[2,1-l]pyrimido[6,1-h][1,4,7,9,10,13]benzoxapentaazacyclohexadecin-24-one]
EC50 [2]: 8.2 nmol/L

(18aS)-13-(trans-3-hydroxycyclobutyl)-11-methyl-2-trideuteriomethyl-8,9,10,11,19,20,21,22-octahydro-18aH,24H-18,15-(metheno)pyrido[2,1-l]pyrimido[6,1-h][1,4,7,9,10,13]benzoxapentaazacyclohexadecine-7,24(6H)-dione [Example 118t]
EC50 [2]: 0.72 nmol/L

(23aS)-18-(azetidin-1-yl)-8-fluoro-16-methyl-1,3,4,11,12,13,14,15,16,23a-decahydro-2H,6H-23,20-(metheno)pyrido[1,2-b]pyrimido[1,6-f][2,5,6,8,11]benzopentaazacyclopentadecin-6-one [Example 148]
EC50 (RSV ATCC VR-1540 (A2)): 28.9 nmol/L
